Test results: US20130131321A1, “LIGANDS FOR ANTIBODY AND Fc-FUSION PROTEIN PURIFICATION BY AFFINITY CHROMATOGRAPHY” (GRAFFINITY PHARMACEUTICALS GMBH, priority 2010, published 2013)

How the values were obtained:
full length Bevacizumab = assay: SPR screening of chemical microarrays, full length Bevacizumab; format: binding, humanized; details: chemical microarray, immobilized ligand
Text: (§1) Graffinity has developed high density chemical microarrays comprising thousands of small molecules immobilized onto gold chips. The arrays are constructed using maleimide-thiol coupling chemistry in combination with high density pintool spotting. For the construction, glass plates are microstructured by photolithographical methods in order to define up to 9,216 sensor fields per array. A subsequently applied gold coating provides the basis for the SPR effect and enables the formation of a binary, mixed self assembled monolayer (SAM) of two different thiols. […]
(§2) Surface plasmons are collective oscillations of electrons at a metal surface which can be resonantly excited by polarized light of appropriate wavelength and incidence angle. […] Processes which alter the local refractive index in close proximity to the metal surface (such as antibody binding to the immobilized ligands) can therefore be monitored sensitively. […] While scanning over a range of wavelengths covering the SPR resonance conditions, reflection images are recorded stepwise. […]
(§3) The experimental results of the microarray screening campaigns were analyzed by manual hit selection using in-house developed software routines as well as by an in-depth data analysis by commercially available data mining tools. […]

Anti RhD IgG = assay: SPR screening of chemical microarrays, Anti RhD IgG; format: binding; details: chemical microarray, immobilized ligand
Text: as §1, §2, §3

Bevacizumab [1] = biological target: T1, Bevacizumab (Homo sapiens, UniProt P01857); assay: Uptake kinetics by batch adsorption (time-scale of binding); design: species or system humanized; details: 0.75 mg ml^−1 Bevacizumab in PBS, 25° C.
T1 construct: fused on or other part: humanised anti-VEGF-A VH domain N-terminal of the gamma-1 constant region (engineered, no UniProt entry)
Procedure: Uptake kinetics were investigated similarly by batch adsorption in 96-well filter plates. Again, 10 μl of sorbent slurry (50% v/v) were mixed with 100 μl of protein solution. However, a fixed initial concentration of 0.75 mg ml^−1 Bevacizumab in PBS was used. Reactions were agitated vigorously at 25° C. for up to 80 min. Supernatants were separated rapidly by spinning through filters after 2.5, 5, 10, 20, 40 and 80 minutes and sampled for analysis. Concentrations of the antibody were analyzed by Bradford assay.
Uptake kinetics were characterized by a time-scale of binding t0.8, which was defined as the time after which 80% of the equilibrium saturation of resin with antibody had occurred. For determination of t0.8, measured concentrations in the supernatant were interpolated by fitting of double-exponentials (5) and values of t0.8 were read out from graphs. Parameters of Langmuir isotherms and time-scales of binding for in-house resins as well as for reference resins are reported in the table below.

Bevacizumab [2] = biological target: T1, Bevacizumab; assay: Dynamic and equilibrium binding capacity by column chromatography; design: species or system humanized; details: 1 mg ml^−1 Bevacizumab
Procedure: Dynamic binding capacities were determined by column chromatography with purified Bevacizumab. Resins were packed into analytical columns of 25 mm length and 3 mm inner diameter. Columns were fed with 1 mg ml^−1 antibody in phosphate-buffered saline (150 mM NaCl, 20 mM phosphate buffer, pH 7.3) at constant flow rate, while the concentration of antibody in effluents was monitored online via absorbance at 280 nm. Antibody was loaded until effluent concentration reached at least 10% of the feed concentration. Dynamic binding capacities were determined at a flow rate of 50 cm h^−1, corresponding to 3 min empty column residence time. Equilibrium capacities were also determined at a flow rate of 50 cm h^−1 by loading until complete breakthrough of antibody. […]
‘Dynamic capacity’ was defined as the amount of antibody that can be injected onto a column at constant flow rate until the effluent concentration reaches 10% of the feed concentration. It was calculated as the time t0.1 after which 10% breakthrough occurred, multiplied by the flow rate F and feed concentration cf.
Equilibrium capacity is defined as the maximum amount of antibody that binds to a column for a given feed stream concentration. It was calculated by evaluation of the following integral
The integral was evaluated numerically. […]

## COc1ccc(NC(=O)c2cc(-c3ccco3)n(C)n2)cc1C(=O)NCCCN [Ligand L1, 5-[5-(2-Furyl)-1-methylpyrazol-3-yl]carboxamido-2-methoxybenzoic acid N-(3-aminopropyl)amide]
Full length Bevacizumab
  SPR binding to full length Bevacizumab: distinct binding
Anti RhD IgG
  SPR binding to full length Anti RhD IgG: clearly bound
Bevacizumab [1]
  t0.8 (time-scale of binding, 80% of equilibrium saturation): 9.9 min
Bevacizumab [2]; 50 cm h^−1, 10% breakthrough
  Dynamic Capacity: 20.2 mg per ml of resin
Bevacizumab [2]; 50 cm h^−1, complete breakthrough
  Equilibrium Capacity: 25.7 mg per ml of resin
